Laboratory results taken from US5171851A, “Imidazole substituted benzoxazine or benzothiazine derivatives” (Dong-A Pharm. Co., Ltd., priority 1990, dated 1992).
Where “and” joins values, the source holds several entries; their conditions need not be identical. Equal entries are not always repeated. Where two headings read alike, the source gives them in different places.

Tests used:
[1] = target: T1, cyclic AMP phosphodiesterase (Canis lupus familiaris, UniProt A0A8I3NYE0); assay: effect on cyclic AMP phosphodiesterase isolated from dog's heart; format: biochemical; details: substrate 1.0 uM; for Inhibitory effect on PDE activity / inhibition at 10 µM / inhibition at 100 µM: falls with concentration; for Inhibitory effect on PDE activity: unit assumed; for IC50: pH 8.0, read-out: IC 50 (50% inhibition of substrate hydrolysis); for inhibition at 10 µM / inhibition at 100 µM: read-out: Inhibitory effect on PDE activity
T1 construct: Two to four grams of left ventricular muscle was obtained; from tissue; host or cells: dog left ventricular muscle, detergent-extracted particulate fraction, DEAE-cellulose pool
T1 sequence (A0A8I3NYE0 1-1135): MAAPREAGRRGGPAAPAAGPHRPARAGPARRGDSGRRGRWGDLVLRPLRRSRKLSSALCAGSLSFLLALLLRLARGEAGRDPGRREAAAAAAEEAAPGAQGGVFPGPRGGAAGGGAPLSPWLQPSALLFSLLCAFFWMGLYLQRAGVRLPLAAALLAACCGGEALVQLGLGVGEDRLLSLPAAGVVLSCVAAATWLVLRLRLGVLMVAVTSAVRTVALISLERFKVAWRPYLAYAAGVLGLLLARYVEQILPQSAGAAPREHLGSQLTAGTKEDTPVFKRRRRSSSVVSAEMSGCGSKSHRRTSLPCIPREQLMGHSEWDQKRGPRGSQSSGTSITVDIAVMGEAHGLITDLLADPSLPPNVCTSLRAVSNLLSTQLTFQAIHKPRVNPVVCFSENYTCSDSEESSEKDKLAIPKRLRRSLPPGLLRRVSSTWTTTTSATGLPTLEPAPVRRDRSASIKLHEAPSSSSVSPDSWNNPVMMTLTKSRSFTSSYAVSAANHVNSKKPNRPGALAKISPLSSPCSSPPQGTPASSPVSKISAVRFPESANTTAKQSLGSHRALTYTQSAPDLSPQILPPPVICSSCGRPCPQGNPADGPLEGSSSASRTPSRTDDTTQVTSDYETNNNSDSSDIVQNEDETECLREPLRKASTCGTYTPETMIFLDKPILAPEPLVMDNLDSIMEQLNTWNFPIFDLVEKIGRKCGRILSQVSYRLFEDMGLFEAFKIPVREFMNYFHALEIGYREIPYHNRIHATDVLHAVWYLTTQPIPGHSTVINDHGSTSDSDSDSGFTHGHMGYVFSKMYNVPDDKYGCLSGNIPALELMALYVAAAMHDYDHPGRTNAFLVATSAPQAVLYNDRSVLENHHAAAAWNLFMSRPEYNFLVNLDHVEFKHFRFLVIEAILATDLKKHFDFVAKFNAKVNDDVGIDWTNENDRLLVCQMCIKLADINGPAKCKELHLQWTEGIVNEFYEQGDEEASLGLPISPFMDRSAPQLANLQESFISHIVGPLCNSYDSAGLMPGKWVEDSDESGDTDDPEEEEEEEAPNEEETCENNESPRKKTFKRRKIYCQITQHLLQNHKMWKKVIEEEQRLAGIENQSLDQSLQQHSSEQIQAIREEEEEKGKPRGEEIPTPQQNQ

[2] = tested on: blood-perfused sino-atrial preparation; assay: sinus rate on blood-perfused sino-atrial preparation; parameters: species or system dog; details: for activation at 0.001 mg: dose 1.0 ug; for activation at 0.003 mg: dose 3.0 ug; for activation at 0.01 mg: dose 10.0 ug; for activation at 0.03 mg: dose 30.0 ug
Description: Determination of sinus rate on blood-perfused sino-atrial preparation: Mongrel gods of either sex weighing 7-12 kg were anesthetized with sodium pentoba rbital (30 mg/kg i.v.). Heparin ob 1000 unit/kg was administered to each animal intravenously and the animals were exsanguinated. Heart was removed and put in Krebs-Henseleit solution. Catheter was inserted into blood vessel between right coronary artery and SA nodes. Right atrium and catheter were together removed. Blood supplied from carotid artery of donor dog of either sex weighing 15-25 kg, was supplied to blood vessel cather from right coronary artery and SA node under constant blood pressure of 100 mmHG by use of Peristaltic pump. The resting tension of right atrial muscle was made to 2g. The sinus rate triggered by spontaneous contraction of atrial muscle was determined on Narco physiograph Narcotrace 4). Detailed method was reported by S. Chiba, et al. in Japanese Pharmacology 25, 433-439(1975). Doses of test compounds were injected into flowing blood in gum tube connected to the near part of the catheter inserted into right coronary artery. The effects on sinus rate were shown as percent compared with the sinus ratio prior to the injection of the test compounds.

[3] = tested on: blood perfused papillary muscle preparation; assay: contractile power on blood perfused papillary muscle preparation; parameters: species or system dog; details: for activation at 0.001 mg: dose 1.0 ug; for activation at 0.003 mg: dose 3.0 ug; for activation at 0.01 mg: dose 10.0 ug; for activation at 0.03 mg: dose 30.0 ug; for ED 30 (developed tension of papillary muscle): least-square method
Description: Determination of contractile power on blood perfused papillary muscle preparation:
Dogs of either sex weighing 7-12 kg were anesthetized with sodium pentobarbital (30 mg/kg, i.v.). Heparin of 1000 unit/kg was administered to each animal intravenously. The animals were exsanguinated and heart was removed. The preparation was perfused through the cannulated anterior septal artery (ASA) with arterial blood from a donor dog at constant pressure of about […]. Donor dogs were anesthetized with sodium pentobarbital (30 mg/kg, i.v.). Heparin of 1000 units/kg was administered intravenously. The papillary muscle was stimulated with rectangular pulses of 5- ms duration and about 1.5 times the threshold voltage at a rate of 120 stimuli/min through bipolar electrodes. Resting tension was made to 2 g. The developed tension of papillary muscle was determined by Isometric tresducer. Detailed method was reporated by Matsumoto in Am J. Physiol. 218, 1459-1463 (1970). Test compound at the doses of 10-30 ul was injected in flowing blood in the gum tube connected to catheter. The inotropic effect of the test compounds was shown by change percent of developed tension compared with that prior to the administration of the test compounds.

anesthetized cats = assay: cardiotonic effect on anesthetized cats; format: in vivo, cat; details: Felis catus; for change in vivo at 0.01 mg/kg: 0.01 mg/Kg iv; for change in vivo at 0.1 mg/kg: 0.1 mg/Kg iv; for change in vivo at 0.31 mg/kg: 0.31 mg/Kg iv
Description: Determination of cardiotonic effect on anesthetized cats: Male cats weighing about 3 kg were anesthetized with sodium pentobarbital (30 mg/kg, i.p.). The same anesthetic was infused intravenously at the does of 4 mg/kg/hr in order to maintain the anesthetic state and mechanically ventilated through a cuffed endotracheal tube, chest was opened by a midline incision and a catheter for measuring left ventricular pressure was inserted through apex into left ventricle and the left ventricular pressure was measured. LVdP/dt was determined by use of diffentiator from the left ventricular pressure. Systemic blood pressure was measured by the left femoral artery by a pressure transducer and heart rate was measured by a cardiotachometer triggered by blood pressure pulses. Test compound was injected into the femoral vein by use of cannule. After completion of the surgical procedures, the cats were allowed to recover about 30 minutes before drug administration. These compounds were dissolved in 0.9% physiological saline and diluted with saline. Solvent such as DMSO or DMF was also used, if necessary. Test compound of 0.1 ml/kg was used. Detailed method was reporated in J. Med. Chem. 30. 1279-87(1987).

[4] = Canis lupus familiaris, read-out: change of sinus rate (%)
[5] = Canis lupus familiaris, read-out: change of contractivity (%)

## 6-(2-methylimidazol-1-yl)-(4H)-3,1-benzimidazol-2-one
[1]; 0.1 uM test compound
  Inhibitory effect on PDE activity: 95.9%
[1]; 1 uM test compound
  Inhibitory effect on PDE activity: 86.8%
[1]; 10 uM test compound
  Inhibitory effect on PDE activity: 62.6%
[1]; 100 uM test compound
  Inhibitory effect on PDE activity: 37.9%
[1]
  IC50: 32.4 µM

## Cc1nccn1-c1ccc2c(c1)COC(=O)N2 [6-(2-methylimidazol-1-yl)-(4H)-3,1-benzoxazine-2-one]
[2]; [4]
  activation at 0.001 mg: 0%
  activation at 0.003 mg: 0%
  activation at 0.01 mg: 0.86%
  activation at 0.03 mg: 3.42%
[1]; 10 uM test compound
  inhibition at 10 µM: 51.7%
[1]; 100 uM test compound
  inhibition at 100 µM: 35.8%
[1]
  IC50: 12.8 µM
[3]; [5]
  activation at 0.001 mg: 0%
  activation at 0.003 mg: 2.44%
  activation at 0.01 mg: 8.57%
  activation at 0.03 mg: 13.5%
[3]
  ED 30 (developed tension of papillary muscle): > 1000 µg

## O=C1Nc2ccc(-n3cnc4ccccc43)cc2CO1 [6-(benzimidazol-1-yl)-(4H)-3,1-benzoxazin-2-one]
[2]; [4]
  activation at 0.001 mg: 0%
  activation at 0.003 mg: 0%
  activation at 0.01 mg: 0.3%
  activation at 0.03 mg: 0.75%
[1]; 10 uM test compound
  inhibition at 10 µM: 61.6%
[1]; 100 uM test compound
  inhibition at 100 µM: 30.1%
[3]; [5]
  activation at 0.001 mg: 0%
  activation at 0.003 mg: 1.13%
  activation at 0.01 mg: 2.63%
  activation at 0.03 mg: 5.24%
[3]
  ED 30 (developed tension of papillary muscle): > 1000 µg

## O=C1Nc2ccc(-n3ccnc3)cc2CO1 [6-(imidazol-1-yl)-(4H)-3,1-benzoxazin-2-one]
[2]; [4]
  activation at 0.001 mg: 0%
  activation at 0.003 mg: 0.84%
  activation at 0.01 mg: 2.52%
  activation at 0.03 mg: 6.67%
[1]; 10 uM test compound
  inhibition at 10 µM: 60%
[1]; 100 uM test compound
  inhibition at 100 µM: 41.8%
[1]
  IC50: 31 µM and 12.7 µM
[3]; [5]
  activation at 0.001 mg: 3.33%
  activation at 0.003 mg: 6.95%
  activation at 0.01 mg: 9.76%
  activation at 0.03 mg: 16.2%
[3]
  ED 30 (developed tension of papillary muscle): > 1000 µg

## Cc1cn(-c2cc(C)c3c(c2)COC(=O)N3)cn1 [8-methyl-6-(4-methylimidazol-1-yl)-(4H)-3,1-benzoxazin-2-one]
[2]; Canis lupus familiaris, dose 0.1 ug, read-out: change of sinus rate (%)
  activation at 0.0001 mg: 0.8%
[2]; Canis lupus familiaris, dose 0.3 ug, read-out: change of sinus rate (%)
  activation at 0.0003 mg: 1.7%
[2]; [4]
  activation at 0.001 mg: 6.6%
  activation at 0.003 mg: 5.8%
[2]; at the ED 30 dose
  change of sinus rate (%): +5.0%
[1]
  IC50: 2.4 µM and 4.3 µM and 4.05 µM
Anesthetized cats; read-out: HR (%)
  change in vivo at 0.01 mg/kg: 2%
  change in vivo at 0.1 mg/kg: 7.5%
  change in vivo at 0.31 mg/kg: 4.4%
Anesthetized cats; read-out: LV dp/dt (%)
  change in vivo at 0.01 mg/kg: 20%
  change in vivo at 0.1 mg/kg: 50%
  change in vivo at 0.31 mg/kg: 40%
Anesthetized cats; read-out: LVP (%)
  change in vivo at 0.01 mg/kg: 0.1%
  change in vivo at 0.1 mg/kg: 4.4%
  change in vivo at 0.31 mg/kg: 1.2%
Anesthetized cats; read-out: SBP (%)
  change in vivo at 0.01 mg/kg: -1.7%
  change in vivo at 0.1 mg/kg: -6.6%
  change in vivo at 0.31 mg/kg: -3.4%
Anesthetized cats; read-out: dBP
  change in vivo at 0.01 mg/kg: -8.5%
  change in vivo at 0.1 mg/kg: -20%
  change in vivo at 0.31 mg/kg: -14.3%
Anesthetized cats; read-out: mBP (%)
  change in vivo at 0.01 mg/kg: -5.5%
  change in vivo at 0.1 mg/kg: -13.9%
  change in vivo at 0.31 mg/kg: -9.3%
[3]; Canis lupus familiaris, dose 0.1 ug, read-out: change of contractivity (%)
  activation at 0.0001 mg: 4.3%
[3]; Canis lupus familiaris, dose 0.3 ug, read-out: change of contractivity (%)
  activation at 0.0003 mg: 8.7%
[3]; [5]
  activation at 0.001 mg: 23.9%
  activation at 0.003 mg: 79.2%
[3]
  ED 30 (developed tension of papillary muscle): 1.2 µg
